Experimental data: the OPERA property sets (Mansouri et al. 2018)

SMILES | logP
C[C@H](CN1CCOCC1)C(C(=O)N1CCCC1)(c1ccccc1)c1ccccc1 | 3.61
CCNC(=O)NCCCn1nc(-c2ccccc2)ccc1=O | 1.68
O=C(O)Cc1ccc(C(=O)O)cc1 | 1.24
COCN(C#N)C1CC(OC2CC(O)(C(C)=O)Cc3c(O)c4c(c(O)c32)C(=O)c2c(OC)cccc2C4=O)OC(C)C1O (stereo unspecified) | 2.64
CNC(=O)NCCCCn1nc(-c2ccccc2)ccc1=O | 1.23
CC(C)(C)NCC(O)COc1cccc2c1C[C@H](O)[C@H](O)C2 (stereo partly specified) | 0.81
Nc1nc(=O)c2[nH]c(N)c(Cc3cccs3)c2[nH]1 | 1.01
CCOC(=O)OCn1cc(F)c(=O)[nH]c1=O | -0.04
CCCCN1Cn2c(nc3ccccc3c2=O)C1C (stereo unspecified) | 1.6
CC(C)(C)C(COc1ccccc1)OC(=S)n1ccnc1 (stereo unspecified) | 4.27
CNC=Nc1ccc(C)cc1C | 2.92
Nc1nc(N)c2ncn([C@H]3C=C[C@@H](CO)O3)c2n1 | -0.48
N#CCCO | -0.94
CC1NC(=O)NC1=O (stereo unspecified) | -0.91
CCc1ccc(OCC(OC(=S)n2ccnc2)C(C)(C)C)cc1 (stereo unspecified) | 5.09
CCOC(=O)C=C1NC(=O)C(N2CCCCC2)S1 (stereo unspecified) | 2.34
O=C1C=CC(=O)c2c(O)ccc(O)c21 | 1.79
ClC(Cl)Br | 2
COc1cc(C(N)=O)ccc1-c1cn2cccnc2n1 | 0.7
O=C(O)CCCCOc1cccc2ccccc12 | 4
Nc1cccc(Cl)c1Cl | 2.82
CCCc1ccc(OCC(OC(=S)n2ccnc2)C(C)(C)C)cc1 (stereo unspecified) | 5.77

SMILES | logP
COc1ncc(-c2ccncc2)cc1C#N | 2.02
O=C1C[N+]([O-])=C(c2ccccc2)c2cc(Cl)ccc2N1CCO | 0.82
CC(=O)NC(CO)C(N)=O (stereo unspecified) | -1.87
O=[N+]([O-])c1cnc(N2CCNC2=S)s1 | 1.7
CC(C)(C)C(COc1ccc(-c2ccccc2)cc1)OC(=S)n1ccnc1 (stereo unspecified) | 6.06
CN(C)CC/C=C1\c2ccccc2COc2ccccc21 | 4.29
CCOc1ccc(C=NNC(=N)N)cc1 | 0.24
CC1CC2CC=CCC2(N)c2ccccc21 (stereo unspecified) | 3.4
COc1ccc(Cn2cc(F)c(=O)[nH]c2=O)cc1 | 1.04
CC(=O)OCC1=C(C(=O)O)N2C(=O)C(NC(=O)Cc3cc4ccccc4s3)C2SC1 (stereo unspecified) | 1.68
COC(=O)Nc1nc2cc(C(=O)c3ccccc3)ccc2n1C(=O)OC | 2.47
CN(C)C(=O)Nc1ccc(Oc2nnnn2C2CCCCC2)cc1 | 2.18
Nc1cccc(C(=O)O)c1 | 0.65
CCC1(CC)C(=O)NCC(C)C1=O (stereo unspecified) | 0.78
O=c1c2ccccc2nc2n1CCCCC2 | 2
CCCCCCC(=O)O | 2.42
CCOC(=O)c1cnc2n(c1=O)CCC(C)C2 (stereo unspecified) | 0.66
CN(C)[C@@H]1C(O)=C(C(N)=O)C(=O)[C@@]2(O)C(O)=C3C(=O)c4c(O)cccc4[C@@](C)(O)[C@H]3[C@H](O)[C@@H]12 | -0.9
c1cc(CN2CCCCC2)cc(OCCCNc2nc3ccccc3s2)c1 | 5.41
CCC1(c2ccccc2)NC(=O)N(C)C1=O (stereo unspecified) | 1.69
CCCCCCCC(=O)n1cc(CC(NC(=O)CC2NC(=O)C3C4CCC(CC4)N3C2=O)C(=O)NC(Cc2ccccc2)C(=O)N(C)Cc2ccccc2)c2ccccc21 (stereo unspecified) | 7.29
CC(=O)Nc1nc(=O)cc(-c2ccc([N+](=O)[O-])o2)s1 | 1.01

SMILES | logP
O=c1[nH]c(=O)n(Cc2ccc(Cl)cc2)cc1F | 1.64
COc1cccc2c1C(=O)c1c(O)c3c(c(O)c1C2=O)CC(O)(C(C)=O)CC3OC1CC(NC(=O)CN(C)C)C(O)C(C)O1 (stereo unspecified) | 1.26
CC(C)Oc1ccc(OCC(OC(=O)n2ccnc2)C(C)(C)C)cc1 (stereo unspecified) | 4.08
CCCCC1C(=O)NC(=O)N(C)C1=O (stereo unspecified) | 1.1
COC1N(C2CC(F)C(CO)O2)C(=O)NC(=O)C1(C)Cl (stereo unspecified) | 0.18
Cc1ccc2nc3c(c(=O)n2c1)CCC3 | 1.63
CCC(C(=O)OC(C)c1ccccc1)C(CO)Cc1cncn1C (stereo unspecified) | 2.23
O=[N+]([O-])c1ccc(Oc2ccc(Cl)cc2Cl)cc1 | 4.64
O=C(O)Cn1nnc2ccccc21 | -1.88
COCC(=O)Cn1ccnc1[N+](=O)[O-] | -0.26
NC(=S)NNCc1ccc2c(c1)OCO2 | 0.14
CCCOc1ccc(OCC(OC(=S)n2ccnc2)C(C)(C)C)cc1 (stereo unspecified) | 5.03
COC(=O)NC1=NCC(c2cccc(Cl)c2)N1C (stereo unspecified) | 2.1
OC(Cn1ccnc1)(c1ccc(F)cc1)c1ccc(-c2ccncc2)cc1 (stereo unspecified) | 2.47
O=C(O)c1cc(I)ccc1O | 3.34
Nc1nc(=O)n(C2OC(CO)CC2F)cc1Cl (stereo unspecified) | -0.46
CCN1CCc2nc(N)oc2CC1 | 0.05
Cc1nc(N)sc1C(=O)CCN1CCCC1 | 1.74
CN(C)C(=O)c1cccc(Oc2ccccc2)c1 | 2.57
O=C1NC(=O)C(Cc2ccccc2)(Cc2ccccc2)N1 | 2.46
C[C@@H]1O[C@@H](O[C@H]2C[C@@H](O)[C@]3(CO)[C@H]4[C@H](O)C[C@]5(C)[C@@H](C6=CC(=O)OC6)CC[C@]5(O)[C@@H]4CC[C@]3(O)C2)[C@H](O)[C@H](O)[C@H]1O | -2
O=C(O)Cc1cc(O)ccc1O | 0.86
